Reference: US8399681B2, “Substituted aminothiazolone indazoles as estrogen related receptor-alpha modulators” (Janssen Pharmaceutica NV, priority 2009, dated 2013)

Target: T1, ERR1 (also known as ERR-α or ERR-1) (Homo sapiens, UniProt P11474)
T1 sequence (P11474 193-421 limits assumed): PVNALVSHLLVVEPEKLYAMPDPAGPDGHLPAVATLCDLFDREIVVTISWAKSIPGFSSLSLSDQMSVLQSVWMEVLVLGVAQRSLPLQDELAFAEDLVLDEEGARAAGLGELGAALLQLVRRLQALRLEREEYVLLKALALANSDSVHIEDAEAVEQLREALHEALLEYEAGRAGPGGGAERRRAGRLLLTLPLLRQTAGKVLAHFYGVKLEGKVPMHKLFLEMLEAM
Assay: TR-FRET assay (disruption of co-activator peptide binding)
Type: biochemical
Conditions: 6His-tagged ERR1 LBD, GST-hSRC2 co-activator polypeptide; average of 3 independent experiments
Experimental: Time-Resolved Fluorescence Resonance Energy Transfer (TR-FRET) experiments were performed to examine the functional response of ERR1 (also known as ERR-α or ERR-1) ligands. The TR-FRET assay described herein relied on the conformation of ERR1 for binding to a co-activator peptide: when a test compound binds to ERR1 and alters its conformation, it can disrupt the binding of the co-activator peptide. The components of this homogeneous secondary assay included: the ^6His-tagged-ERR1LBD, a GST-labeled-hSRC2 co-activator polypeptide and a fluorescent donor/acceptor pair from CIS bio international htrf/bioassays (Bedford, Mass.) using both an α-GST Europium Cryptate (Eu) label and an α^6His-XL665 (allophycocyanin) fluorophore.
For TR-FRET measurements, the reaction was buffered in 25 mM Tris pH 8, 2.5 mM Hepes, 20 mM KCl, 1 mM DTT, and 0.05 mg/mL BSA (-lipids). The final concentrations of reagents were 6 nM of ERR1LBD, 6 nM GST-SRC-2 peptide, 30 nM Eu cryptate, and 7.5 nM XL665. Reactions were allowed to reach equilibrium at 25° C. for 4-18 hours before collecting data on the Analyst from LJL Biosystems (Molecular Devices Sunnyvale, Calif.). As a time-resolved method, the samples were excited at […] and emission was collected for 1 ms at both 615 and 665 nm with delays of 400 and 75 μs, respectively. Dose response curves were fitted using a hyperbolic equation and the data reported is the average of 3 independent experiments.

Structure (SMILES) | EC50 [nM]
O=C1N=C(N2CCC3(CC2)NCNC3=O)S/C1=C\c1ccc2c(cnn2Cc2ccc(Cl)cc2C(F)(F)F)c1 [Example 167, 8-{5-[1-(4-Chloro-2-trifluoromethyl-benzyl)-1H-indazol-5-ylmethylene]-4-oxo-4,5-dihydro-thiazol-2-yl}-1,3,8-triaza-spiro[4.5]decan-4-one] | 16
COC1CN(C2=NC(=O)/C(=C/c3ccc4c(cnn4Cc4ccc(Cl)cc4C(F)(F)F)c3)S2)C1 [Example 113, 5-[1-(4-Chloro-2-trifluoromethyl-benzyl)-1H-indazol-5-ylmethylene]-2-(3-methoxy-azetidin-1-yl)-thiazol-4-one] | 14
CC1(C(=O)O)CCN(C2=NC(=O)/C(=C/c3ccc4c(cnn4Cc4ccc(C(F)(F)F)cc4C(F)(F)F)c3)S2)CC1 [Example 74, 1-{5-[1-(2,4-Bis-trifluoromethyl-benzyl)-1H-indazol-5-ylmethylene]-4-oxo-4,5-dihydro-thiazol-2-yl}-4-methyl-piperidine-4-carboxylic acid] | 56.2
O=C1N=C(N2CCCN(CCO)CC2)S/C1=C\c1ccc2c(cnn2Cc2ccc(Cl)cc2C(F)(F)F)c1 [Example 76, 5-[1-(4-Chloro-2-trifluoromethyl-benzyl)-1H-indazol-5-ylmethylene]-2-[4-(2-hydroxy-ethyl)-[1,4]diazepan-1-yl]-thiazol-4-one] | 18.3
O=C1N=C(N2CCNC3(CC3)C2)S/C1=C\c1ccc2c(cnn2Cc2ccc(C(F)(F)F)cc2C(F)(F)F)c1 [Example 179, 5-[1-(2,4-Bis-trifluoromethyl-benzyl)-1H-indazol-5-ylmethylene]-2-(4,7-diaza-spiro[2.5]oct-7-yl)-thiazol-4-one] | 17
COc1ccc(Cn2ncc3cc(/C=C4\SC(N5CCNCC5)=NC4=O)ccc32)c(C(F)(F)F)c1 [Example 34, 5-[1-(4-Methoxy-2-trifluoromethyl-benzyl)-1H-indazol-5-ylmethylene]-2-piperazin-1-yl-thiazol-4-one] | 7.5
O=C(O)COC1CCN(C2=NC(=O)/C(=C/c3ccc4c(cnn4Cc4ccc(Cl)cc4C(F)(F)F)c3)S2)CC1 [Example 131] | 7.8
O=C1N=C(N2CCO[C@H](CO)C2)S/C1=C\c1ccc2c(cnn2Cc2ccc(F)cc2C(F)(F)F)c1 [Example 177, 5-[1-(4-Fluoro-2-trifluoromethyl-benzyl)-1H-indazol-5-ylmethylene]-2-((2S)-2-hydroxymethyl-morpholin-4-yl)-thiazol-4-one] | 55
C=C(C)c1ccc(Cn2ncc3cc(/C=C4\SC(N5CCO[C@@H](CO)C5)=NC4=O)ccc32)c(C(F)(F)F)c1 [Example 275, 2-[(2R)-2-(Hydroxymethyl)morpholin-4-yl]-5-({1-[4-(1-methylethenyl)-2-(trifluoromethyl)benzyl]-1H-indazol-5-yl}methylidene)-1,3-thiazol-4(5H)-one] | 11
COC[C@@H]1CN(C2=NC(=O)/C(=C/c3ccc4c(cnn4Cc4ccc(Cl)cc4C(F)(F)F)c3)S2)CCN1 [Example 209, 5-({1-[4-Chloro-2-(trifluoromethyl)benzyl]-1H-indazol-5-yl}methylidene)-2-[3-(S)-(methoxymethyl)piperazin-1-yl]-1,3-thiazol-4(5H)-one] | 6
CC(C)N[C@@H]1C[C@H](CO)N(C2=NC(=O)/C(=C/c3ccc4c(cnn4Cc4ccc(C(F)(F)F)cc4C(F)(F)F)c3)S2)C1 [Example 262] | 64
CS(=O)(=O)N1CCCN(C2=NC(=O)/C(=C/c3ccc4c(cnn4Cc4ccc(Cl)cc4C(F)(F)F)c3)S2)CC1 [Example 134, 5-[1-(4-Chloro-2-trifluoromethyl-benzyl)-1H-indazol-5-ylmethylene]-2-(4-methanesulfonyl-[1,4]diazepan-1-yl)-thiazol-4-one] | 5
CN1CCN(C2=NC(=O)/C(=C/c3ccc4c(cnn4Cc4ccc(C(C)(C)O)cc4C(F)(F)F)c3)S2)CC1 [Example 242, 5-({1-[4-(1-Hydroxy-1-methylethyl)-2-(trifluoromethyl)benzyl]-1H-indazol-5-yl}methylidene)-2-(4-methylpiperazin-1-yl)-1,3-thiazol-4(5H)-one] | 30
O=C1N=C(N2CCO[C@H](CO)C2)S/C1=C\c1ccc2c(cnn2Cc2ccc(Cl)cc2C(F)(F)F)c1 [Example 212, 5-({1-[4-Chloro-2-(trifluoromethyl)benzyl]-1H-indazol-5-yl}methylidene)-2-[2-(S)-(hydroxymethyl)morpholin-4-yl]-1,3-thiazol-4(5H)-one] | 20
NCC(=O)N1CCCN(C2=NC(=O)/C(=C/c3ccc4c(cnn4Cc4ccc(Cl)cc4C(F)(F)F)c3)S2)CC1 [Example 138, 2-[4-(2-Amino-acetyl)-[1,4]diazepan-1-yl]-5-[1-(4-chloro-2-trifluoromethyl-benzyl)-1H-indazol-5-ylmethylene]-thiazol-4-one] | 19
O=C1N=C(N2CCC(c3nnn[nH]3)CC2)S/C1=C\c1ccc2c(cnn2Cc2ccc(C(F)(F)F)cc2C(F)(F)F)c1 [Example 109, 5-[1-(2,4-Bis-trifluoromethyl-benzyl)-1H-indazol-5-ylmethylene]-2-[4-(1H-tetrazol-5-yl)piperidin-1-yl]-thiazol-4-one] | 36
O=C1N=C(N2CCOCC2)S/C1=C\c1ccc2c(cnn2Cc2ccc(C(F)(F)F)cc2C(F)(F)F)c1 [Compound 3, 5-[1-(2,4-Bis-trifluoromethyl-benzyl)-1H-indazol-5-ylmethylene]-2-morpholin-4-yl-thiazol-4-one] | 21
O=C1N=C(N2CCCNCC2)S/C1=C\c1ccc2c(cnn2Cc2ccc(C(F)(F)F)cc2C(F)(F)F)c1 [Example 55, 5-[1-(2,4-Bis-trifluoromethyl-benzyl)-1H-indazol-5-ylmethylene]-2-[1,4]diazepan-1-yl-thiazol-4-one] | 61
N[C@@H]1C[C@H](CO)N(C2=NC(=O)/C(=C/c3ccc4c(cnn4Cc4ccc(Cl)cc4C(F)(F)F)c3)S2)C1 [Example 257, 2-[(2R,4R)-4-Amino-2-(hydroxymethyl)pyrrolidin-1-yl]-5-({1-[4-chloro-2-(trifluoromethyl)benzyl]-1H-indazol-5-yl}methylidene)-1,3-thiazol-4(5H)-one] | 96
CN(C)CC1CN(C2=NC(=O)/C(=C/c3ccc4c(cnn4Cc4ccc(C(F)(F)F)cc4C(F)(F)F)c3)S2)CCO1 (stereo not shown) [Example 171, 5-[1-(2,4-Bis-trifluoromethyl-benzyl)-1H-indazol-5-ylmethylene]-2-(2-dimethylaminomethyl-morpholin-4-yl)-thiazol-4-one] | 38
O=C1N=C(N2CCN[C@@H](CO)C2)S/C1=C\c1ccc2c(c1)c(Cl)nn2Cc1ccc(Cl)cc1C(F)(F)F [Example 187, 5-[3-Chloro-1-(4-chloro-2-trifluoromethyl-benzyl)-1H-indazol-5-ylmethylene]-2-(3-(R)-hydroxymethyl-piperazin-1-yl)-thiazol-4-one] | 12.7
NC(=O)C1CN(C2=NC(=O)/C(=C/c3ccc4c(cnn4Cc4ccc(C(F)(F)F)cc4C(F)(F)F)c3)S2)CCN1 (stereo not shown) [Example 274, 4-[5-({1-[2,4-Bis(trifluoromethyl)benzyl]-1H-indazol-5-yl}methylidene)-4-oxo-4,5-dihydro-1,3-thiazol-2-yl]piperazine-2-carboxamide] | 8
